Source: publication PMC11855478, “Bicyclic N,S-Acetals Containing Fused Cysteine-Amide System as New Heterocyclic Class Targeting Human Farnesyltransferase (FTase-h)” (International Journal of Molecular Sciences, 2025)
pIC50: −log10 of the molar value.

Experiments:
SNB-75 (CNS Cancer) = experiment: NCI one dose, SNB-75; type: cell-based, human; details: SNB-75, 1.00E-5 Molar one dose
Method: (§1) 3.4. Cell Proliferation Assay
(§2) Selected compounds were tested on a panel of 60 human cancer cell lines at the National Cancer Institute (NCI), Germantown, MD, USA. The cytotoxicity studies were conducted using a 48 h exposure protocol using the sulfo-rhodamine B assay.

UO-31 renal cancer cells = experiment: NCI one dose, UO-31; type: cell-based, human; details: UO-31, 1.00E-5 Molar one dose
Method: as §1, §2

SR (Leukemia) = experiment: NCI one dose, SR; type: cell-based, human; details: 1.00E-5 Molar one dose
Method: as §1, §2

MDA-MB-435 (Melanoma) = experiment: NCI one dose, MDA-MB-435; type: cell-based, human; details: MDA-MB-435, 1.00E-5 Molar one dose
Method: as §1, §2

SK-MEL-5 (Melanoma) = experiment: NCI one dose, SK-MEL-5; type: cell-based, human; details: SK-MEL-5, 1.00E-5 Molar one dose
Method: as §1, §2

[1] = target: human farnesyltransferase (FTase) (Homo sapiens, UniProt P49354+P49356); experiment: FTase inhibitory assay (fluorescence, Dansyl-GCVLS); type: biochemical; details: for % FTI: inhibition of human FTase at 100 μM of tested compound, mean of two experiments
Outline: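 Partially purified recombinant FTase with Dansyl-GCVLS and farnesyl pyrophosphate in Tris/HCl pH 7.5 (DTT, MgCl2, ZnCl2, octyl-glucoside); fluorescence (ex 340/em 486 nm) read 15 min at 30 °C. IC50 by regression for compounds inhibiting >60% at 100 µM; kinetics varied FPP (Dns-GCVLS 2.5 μM) or peptide (FPP 10 μM).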

SF-539 (CNS Cancer) = experiment: NCI one dose, SF-539; type: cell-based, human; details: SF-539, 1.00E-5 Molar one dose
Method: as §1, §2

[2] = test system: panel of 60 human cancer cell lines; experiment: NCI 60 cell panel one dose screen (whole panel); type: cell-based; parameters: Delta (One Dose Mean Graph): unit not given here; details: 1.00E-5 Molar one dose; for Range (One Dose Mean Graph): in % (unit assumed); for Mean Growth Percent: mean over tested cell lines
Method: as §1
Selected compounds were tested on a panel of 60 human cancer cell lines at the National Cancer Institute (NCI), Germantown, MD, USA. The cytotoxicity studies were conducted using a 48 h exposure protocol using the sulfo-rhodamine B assay. […]
X. NCI One Dose Mean Graph of sulfides 4a(A -J) and 4b(A-J)
The entire series of sulfides regrouping twenty synthesized FTI-candidates (4aA-J, 4bA-J) were selected by the National Cancer Institute (NCI) for evaluation of their antiproliferative activity against 60 cancer cell lines (see the followings twenty pages for full evaluation reports). […]
inhibiting 36% of the NCI-H522 cells. Such difference between IC50 on human FTase in the nanomolar range and IC50 on cancer cell growth in the micromolar range is characteristic to potent FTIs and was reported previously on different series of compounds (see for example ref erence in the references part […]
Of interest, none of the tested compounds at a high single dose (10 µM) in the full NCI 60 cell panel has shown a cytotoxic profile. […]
inhibitory potential on FTase raise good hope for further investigation of these series as agents fighting

HCT-116 (Colon Cancer) = experiment: NCI one dose, HCT-116; type: cell-based, human; details: HCT-116, 1.00E-5 Molar one dose
Method: as §1, §2

[3] = test system: HOP-92 (Non-Small Cell Lung Cancer); experiment: NCI one dose, HOP-92; type: cell-based, human; details: HOP-92, 1.00E-5 Molar one dose
Method: as §1, §2

CCRF-CEM (Leukemia) = experiment: NCI one dose, CCRF-CEM; type: cell-based, human; details: 1.00E-5 Molar one dose
Method: as §1, §2

OVCAR-4 (Ovarian Cancer) = experiment: NCI one dose, OVCAR-4; type: cell-based, human; details: OVCAR-4, 1.00E-5 Molar one dose
Method: as §1, §2

[4] = test system: A549/ATCC (Non-Small Cell Lung Cancer); experiment: NCI one dose, A549/ATCC; type: cell-based, human; details: 1.00E-5 Molar one dose
Method: as §1, §2

MCF7 (Breast Cancer) = experiment: NCI one dose, MCF7; type: cell-based, human; details: MCF7, 1.00E-5 Molar one dose
Method: as §1, §2

[5] = test system: EKVX (Non-Small Cell Lung Cancer); experiment: NCI one dose, EKVX; type: cell-based, human; details: 1.00E-5 Molar one dose
Method: as §1, §2

[6] = test system: NCI/ADR-RES (Ovarian Cancer); experiment: NCI one dose, NCI/ADR-RES; type: cell-based, human; details: 1.00E-5 Molar one dose
Method: as §1, §2

OVCAR-8 (Ovarian Cancer) = experiment: NCI one dose, OVCAR-8; type: cell-based, human; details: OVCAR-8, 1.00E-5 Molar one dose
Method: as §1, §2

RXF 393 (Renal Cancer) = experiment: NCI one dose, RXF 393; type: cell-based, human; details: RXF 393, 1.00E-5 Molar one dose
Method: as §1, §2

[7] = test system: NCI-H23 (Non-Small Cell Lung Cancer); experiment: NCI one dose, NCI-H23; type: cell-based, human; details: NCI-H23, 1.00E-5 Molar one dose
Method: as §1, §2

OVCAR-3 (Ovarian Cancer) = experiment: NCI one dose, OVCAR-3; type: cell-based, human; details: OVCAR-3, 1.00E-5 Molar one dose
Method: as §1, §2

K-562 leukaemia cells = experiment: NCI one dose, K-562; type: cell-based, human; details: K-562, 1.00E-5 Molar one dose
Method: as §1, §2

LOX IMVI (Melanoma) = experiment: NCI one dose, LOX IMVI; type: cell-based, human; details: 1.00E-5 Molar one dose
Method: as §1, §2

| SMILES | Growth Percent (SNB-75 (CNS Cancer)) [%] | Growth Percent (UO-31 renal cancer cells) [%] | Growth Percent (SR (Leukemia)) [%] | Growth Percent (MDA-MB-435 (Melanoma)) [%] | Growth Percent (SK-MEL-5 (Melanoma)) [%] | % FTI [1] [%] | Growth Percent (SF-539 (CNS Cancer)) [%] | Delta (One Dose Mean Graph) [2] | Range (One Dose Mean Graph) [2] | Mean Growth Percent [2] [%] | Growth Percent (HCT-116 (Colon Cancer)) [%] | Growth Percent [3] [%] | Growth Percent (CCRF-CEM (Leukemia)) [%] | Growth Percent (OVCAR-4 (Ovarian Cancer)) [%] | Growth Percent [4] [%] | Growth Percent (MCF7 (Breast Cancer)) [%] | Growth Percent [5] [%] | Growth Percent [6] [%] | Growth Percent (OVCAR-8 (Ovarian Cancer)) [%] | Growth Percent (RXF 393 (Renal Cancer)) [%] | also measured |
| --- | --- | --- | --- | --- | --- | --- | --- | --- | --- | --- | --- | --- | --- | --- | --- | --- | --- | --- | --- | --- | --- |
| C[C@@]12SC[C@@H](C(=O)NCc3cccc(C(F)(F)F)c3)N1C(=O)c1ccccc12 [4bD] | 93.18 | 81.22 | 75.10 | 102.18 | 101.35 | 51 | 99.59 | 25.48 | 41.72 | 94.41 | 87.94 | 88.94 | 89.45 | 89.60 | 77.57 | 85.93 | 98.64 | 100.57 | 92.35 | 105.49 | Growth Percent [7]: 99.06%; Growth Percent (OVCAR-3 (Ovarian Cancer)): 109.46%; Growth Percent (K-562 leukaemia cells): 81.47%; Growth Percent (LOX IMVI (Melanoma)): 100.31% |
| COc1cccc(CNC(=O)[C@@H]2CS[C@@]3(C)c4ccccc4C(=O)N23)c1 [4bE] | 98.09 | 91.68 | 81.22 | 98.34 | 101.12 | 56 | 104.59 | 31.41 | 48.09 | 98.86 | 104.89 | 101.27 | 94.80 | 94.52 | 76.25 | 89.13 | 112.43 | 98.88 | 90.08 | 107.08 | Growth Percent [7]: 98.91%; Growth Percent (OVCAR-3 (Ovarian Cancer)): 115.54%; Growth Percent (K-562 leukaemia cells): 82.59%; Growth Percent (LOX IMVI (Melanoma)): 101.37% |
| COc1ccc(CNC(=O)[C@@H]2CS[C@@]3(C)c4ccccc4C(=O)N23)cc1 [4bF] | 94.53 | 89.30 | 84.33 | 102.01 | 103.30 | 67 | 105.73 | 24.39 | 39.02 | 96.71 | 93.74 | 80.27 | 93.94 | 98.29 | 80.46 | 90.37 | 106.83 | 97.36 | 94.06 | 95.28 | pIC50 ([1]; human FTase in vitro): 5.04; Growth Percent [7]: 96.08%; Growth Percent (OVCAR-3 (Ovarian Cancer)): 108.61%; Growth Percent (K-562 leukaemia cells): 77.39%; Growth Percent (LOX IMVI (Melanoma)): 102.28% |
